The values that follow come from US11634466B2, “Musclin peptides and methods of use thereof” (UNIVERSITY OF IOWA RESEARCH FOUNDATION, priority 2016, dated 2023).

A short description of data set [1]: Plasma musclin level by custom ELISA after osmotic pump infusion of musclin. Conditions: WT mice, musclin 1 ng/g/h i.p. by osmotic pump for 7 d. It is filed as in vivo. As to the method: Whole body composition was obtained by time-domain nuclear magnetic resonance under isoflurane anesthesia (Bruker Minispec; Billerica, Mass.). Osmotic pumps: Osmotic pumps (model 1004, 100 μl volume, 0.11 μl/hr release rate, 28 days duration, Alzet Durect, Cupertino, Calif.), loaded with saline vs. 50 μg of mouse musclin peptide (SFSGFGSPLDRLSAG SVEHRGKQRKAVDHSKKR (SEQ ID NO: 4), corresponding to amino acids 80-112, Gen Bank ID: AAS87598.1, synthesized by Biosynthesis, Lewisville, Tex.) were surgically implanted within the peritoneal cavity of mice under sterile conditions and general anesthesia. Mice recovered for 7 days before exercise testing was performed.
Terminal blood collection was performed by direct cardiac puncture.
96-well ELISA Maxisorp plates (Nunc) were coated with custom rabbit anti-musclin IgG (Anaspec) at 1 μg/well in BupH carbonate-bicarbonate buffer, pH 9.4 (Thermo Scientific) at 4° C. overnight. On the next day plates were washed with TBS/0.05% Tween 20 and blocked with 5% BSA/TBS for 1 hr at room temperature. Synthetic musclin peptide was used as a standard (NH2-sfsgfgspldrlsagsvehrgkqrkavdhskkr-COOH (SEQ ID NO: 28), corresponding to amino acids 80-112, Gen Bank ID: AAS87598.1, synthesized by Biosynthesis, Lewisville, Tex.). […] Fluorescence was detected at 325/420 nm.

Data set [2] addresses T1, NP clearance receptor, NPRC (Homo sapiens, UniProt P17342).
T1 sequence (P17342 27-541): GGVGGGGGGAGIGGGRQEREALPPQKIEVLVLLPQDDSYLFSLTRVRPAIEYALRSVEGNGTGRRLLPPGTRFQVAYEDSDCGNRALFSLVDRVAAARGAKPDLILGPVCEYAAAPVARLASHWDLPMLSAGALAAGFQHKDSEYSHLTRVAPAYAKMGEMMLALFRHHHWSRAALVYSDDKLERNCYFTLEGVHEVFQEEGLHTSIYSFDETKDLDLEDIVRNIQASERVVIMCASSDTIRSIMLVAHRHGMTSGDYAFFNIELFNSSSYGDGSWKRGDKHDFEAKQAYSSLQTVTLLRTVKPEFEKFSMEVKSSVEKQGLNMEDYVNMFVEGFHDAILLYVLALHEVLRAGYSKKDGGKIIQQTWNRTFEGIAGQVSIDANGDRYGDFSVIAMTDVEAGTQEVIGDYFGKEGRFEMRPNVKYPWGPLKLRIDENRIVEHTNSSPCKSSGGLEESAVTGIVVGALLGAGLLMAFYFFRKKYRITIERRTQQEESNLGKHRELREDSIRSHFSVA
Conditions: background statement; cited from earlier work.

For data set [3], the system named is mTORC1 targets (4EBP1, P70S6K). The data set is described as follows: Western blot of mTOR targets in skeletal muscle after musclin infusion. Format: in vivo. To be noted: WT mice. As to the method: Western blotting: Whole cell protein extracts were prepared by homogenizing skeletal muscle tissue in NaCl 150 mM, Tris-HCl 50 mM (pH 7.8), supplemented with 1.5% Triton X-100, protease and phosphatase inhibitors (Roche). Nuclear extracts were obtained using the Subcellular Protein Fractionation Kit for Tissues (Thermo Scientific).
Electrophoresis was performed on 3-8% gradient Nu-Page Tris-Acetate or 10% Nu-Page Bis-Tris gels and transferred to 0.2 μm Sequi-Blot PVDF membranes (Bio-Rad). The membranes were blotted with total AKT1 and phospho-AKT1([…], T308, Cell Signaling), FOXO1 (Cell Signaling), total OXPHOS (rodent, Abcam), musclin (custom rabbit IgG produced against partial mouse musclin sequence NH2-sfsgfgspldrlsagsvehrgkqrkavdhskkr-COOH (SEQ ID NO: 4), corresponding to amino acids 80-112, Gen Bank ID: AAS87598.1, Anaspec, Fremont, Calif.), and GAPDH (Santa Cruz Biotechnologies) antibodies. Densitometric analysis of western blots was performed using Adobe Photoshop (Adobe Systems, San Jose, Calif.).
These findings are paralleled by more pure glycolytic fibers and greater fatigability in tibialis anterior (TA) muscles of exercise-trained Ostn-KO vs. WT mice (FIGS. 13A-13C). […] GSK3β phosphorylation is associated with increased autophosphorylation of mTOR at S2481 (FIGS. 14A-14B). Furthermore, consistent with the known activating effect of GSK3β inhibition on mTORC1, we find increased phosphorylation of the mTOR targets 4EBP1, P70S6K and ULK1 in skeletal muscles of trained WT vs. Ostn-KO mice 1 h after last exercise (FIGS. 15A-15B). […] We also find that skeletal muscle autophagy flux 1 h after last exercise is increased in exercise-trained Ostn-KO vs. WT, as reflected in higher LC3A II/I ratio and lower expression of P62 on western blots (FIGS. 16A-16G).

Setting [4] is: musclin 1 ng/g/h i.p. by osmotic pump for 7 d, skeletal muscle western blot, n=3.

As for “H-SFSGFGSPLDRLSAGSVEHRGKQRKAVDHSKKR-OH [musclin]”, in data set [1], the “plasma level induced by musclin infusion” value was “comparable with that observed after exercise training”. In addition, in data set [2], the “binding to NPRC” value was “affinity comparable to NPs”. Besides, in data set [3] (setting [4]), the 4EBP1/GAPDH came to 1.78±0.05, the P70S6K/GAPDH is 1.73±0.03, the “p-4EBP1/total 4EBP1” value was found to be 0.59±0.07 and the “p-P70S6K/total P70S6K” value came out at 0.32±0.06. Also, the “phosphorylation of mTORC1 targets” value in data set [3] (musclin 1 ng/g/h i.p. for 7 d vs. saline-treated mice) is “greater phosphorylation”.
